Data taken from patent publication EP0620225B1, “Cephalosporin derivatives” (Basilea Pharmaceutica AG, priority 1993, dated 1994).
Values after ≈ are worked out from the molar mass of the structure shown.

Columns and labels:
Acinetobacter sp.51-156 = assay: Antibacterial spectrum (MIC), agar dilution; format: cell-based; details: SP.51156, read-out: MIC
Procedure: (§1) In vitro activity was determined by minimum inhibitory concentration in a microorganism spectum by the agar dilution method in Mueller Hinton agar.

C.freundii 43 = assay: Antibacterial spectrum (MIC), agar dilution; format: cell-based; details: Citrobacter freundii, read-out: MIC
Procedure: as §1

C.freundii 902 = assay: Antibacterial spectrum (MIC), agar dilution; format: cell-based; details: Citrobacter freundii, read-out: MIC
Procedure: as §1

E.cloacae 908R = assay: Antibacterial spectrum (MIC), agar dilution; format: cell-based; details: Enterobacter cloacae, read-out: MIC
Procedure: as §1

E.cloacae 908SSi = assay: Antibacterial spectrum (MIC), agar dilution; format: cell-based; details: Enterobacter cloacae, read-out: MIC
Procedure: as §1

E.coli 25922 = assay: Antibacterial spectrum (MIC), agar dilution; format: cell-based; details: Escherichia coli, read-out: MIC
Procedure: as §1

E.faecalis 6 = assay: Antibacterial spectrum (MIC), agar dilution; format: cell-based; details: Enterococcus faecalis, read-out: MIC
Procedure: as §1

H.influenzae 1 = assay: Antibacterial spectrum (MIC), agar dilution; format: cell-based; details: Haemophilus influenzae, read-out: MIC
Procedure: as §1

K.pneumoniae 418 = assay: Antibacterial spectrum (MIC), agar dilution; format: cell-based; details: Klebsiella pneumoniae, read-out: MIC
Procedure: as §1

L.monocytogenes BK23 = assay: Antibacterial spectrum (MIC), agar dilution; format: cell-based; details: Listeria monocytogenes, read-out: MIC
Procedure: as §1

M.catarrhalis RA21 = assay: Antibacterial spectrum (MIC), agar dilution; format: cell-based; details: Moraxella catarrhalis, read-out: MIC
Procedure: as §1

M.morganii 6H-137 = assay: Antibacterial spectrum (MIC), agar dilution; format: cell-based; details: Morganella morganii, 6H137, read-out: MIC
Procedure: as §1

N.meningitidis 69480 = assay: Antibacterial spectrum (MIC), agar dilution; format: cell-based; details: Neisseria meningitidis, read-out: MIC
Procedure: as §1

P.aeruginosa 27853 = assay: Antibacterial spectrum (MIC), agar dilution; format: cell-based; details: Pseudomonas aeruginosa, read-out: MIC
Procedure: as §1

P.mirabilis 2117 = assay: Antibacterial spectrum (MIC), agar dilution; format: cell-based; details: Proteus mirabilis, read-out: MIC
Procedure: as §1

P.vulgaris 1028 = assay: Antibacterial spectrum (MIC), agar dilution; format: cell-based; details: Proteus vulgaris, read-out: MIC
Procedure: as §1

S.agalactiae QK44 = assay: Antibacterial spectrum (MIC), agar dilution; format: cell-based; details: Streptococcus agalactiae, read-out: MIC
Procedure: as §1

S.aureus 6538 = assay: Antibacterial spectrum (MIC), agar dilution; format: cell-based; details: Staphylococcus aureus, read-out: MIC
Procedure: as §1

S.aureus 734 MRSA = assay: Antibacterial spectrum (MIC), agar dilution; format: cell-based; details: Staphylococcus aureus, read-out: MIC
Procedure: as §1

S.marcescens 69438 = assay: Antibacterial spectrum (MIC), agar dilution; format: cell-based; details: Serratia marcescens, read-out: MIC
Procedure: as §1

S.pneumoniae Q19 = assay: Antibacterial spectrum (MIC), agar dilution; format: cell-based; details: Streptococcus pneumoniae, read-out: MIC
Procedure: as §1

S.pyogenes B15 = assay: Antibacterial spectrum (MIC), agar dilution; format: cell-based; details: Streptococcus pyogenes, read-out: MIC
Procedure: as §1

S.viridans group 016 = assay: Antibacterial spectrum (MIC), agar dilution; format: cell-based; details: Streptococcus viridans, read-out: MIC
Procedure: as §1

X.maltophilia 1AC739 = assay: Antibacterial spectrum (MIC), agar dilution; format: cell-based; details: Stenotrophomonas maltophilia, read-out: MIC
Procedure: as §1

S.aureus MSSA = assay: In vitro activity against selected species (MIC50, MIC90, range); format: cell-based; details: Staphylococcus aureus, medium MHB (Mueller Hinton Broth)
S.pneumoniae PEN-R = assay: as above; format: cell-based; details: Streptococcus pneumoniae; for MIC: MIC range
S.viridans group = assay: as above; format: cell-based; details: Streptococcus viridans
E.faecalis [1] = assay: as above; format: cell-based; details: Enterococcus faecalis, medium MHA
Procedure: as §1

S.aureus MRSA = assay: as above; format: cell-based; details: Staphylococcus aureus, medium MHA (Mueller Hinton Agar) +NaCl
Procedure: as §1

E.faecium = assay: In vitro activity against selected species (MIC50, range); format: cell-based; details: Enterococcus faecium, medium MHA
Procedure: as §1

M.catarrhalis = assay: In vitro activity against selected species (MIC50, MIC90, range); format: cell-based; details: Moraxella catarrhalis, medium IsoB
Escherichia coli 25922 = assay: Efficacy against systemic infections (septicemia) in mice; format: in vivo; details: 96 h, survival day 4
Procedure: (§2) Septicemia was induced in outbred Swiss albino mice (Jbm MoRo [specific pathogen free]; weight 16 to 20 g, Biomedical Research Laboratories, Füllinsdorf, Switzerland). Mice were infected by intraperitoneal injection of diluted overnight cultures of the test organisms. Bacterial challenge doses were 4-10 times the number of organisms required to kill 50% of untreated animals within 48 h. The test compounds were administered p.o. or s.c. 1 and 3 h after the bacterial challenge. To treat the infection with Pseudomonas aeruginosa BA an additional dose was given 5 h after challenge. Control and treatment groups at each dose were composed of five mice each. The 50% effective dose (ED50, in milligrams per kilogram) was calculated by probit analysis as described by Finney (Finney, D.J. 1978, Statistical method in biological assay, 3rd ed. Charles Griffin & Co., Ltd., London), from the survival rates on day 4 after infection.

S.aureus Smith = assay: as above; format: in vivo; details: Staphylococcus aureus, 96 h, sc 1 and 3 h after challenge, survival day 4
Procedure: as §2

E.faecalis [2] = assay: In vitro activity against selected species (MIC50, MIC90, range); format: cell-based; details: Enterococcus faecalis, medium IsoB
[3] = medium IsoB (Isosensitest Broth)

CON1CC/C(=C\C2=C(C(=O)O)N3C(=O)[C@@H](NC(=O)/C(=N\O)c4csc(N)n4)[C@H]3SC2)C1=O [G]
MIC (Acinetobacter sp.51-156): 8 µg/mL (≈ 16.2 µM)
MIC (C.freundii 43): 4 µg/mL (≈ 8.09 µM)
MIC (C.freundii 902): ≤ 0.06 µg/mL
MIC (E.cloacae 908R): 32 µg/mL (≈ 64.7 µM)
MIC (E.cloacae 908SSi): 0.25 µg/mL (≈ 0.506 µM)
MIC (E.coli 25922): ≤ 0.06 µg/mL
MIC (E.faecalis 6): 1 µg/mL (≈ 2.02 µM)
MIC (H.influenzae 1): 0.12 µg/mL (≈ 0.243 µM)
MIC (K.pneumoniae 418): ≤ 0.06 µg/mL
MIC (L.monocytogenes BK23): 2 µg/mL (≈ 4.04 µM)
MIC (M.catarrhalis RA21): 16 µg/mL (≈ 32.4 µM)
MIC (M.morganii 6H-137): ≤ 0.06 µg/mL
MIC (N.meningitidis 69480): ≤ 0.06 µg/mL
MIC (P.aeruginosa 27853): 32 µg/mL (≈ 64.7 µM)
MIC (P.mirabilis 2117): ≤ 0.06 µg/mL
MIC (P.vulgaris 1028): 2 µg/mL (≈ 4.04 µM)
MIC (S.agalactiae QK44): 0.25 µg/mL (≈ 0.506 µM)
MIC (S.aureus 6538): 0.5 µg/mL (≈ 1.01 µM)
MIC (S.aureus 734 MRSA): 16 µg/mL (≈ 32.4 µM)
MIC (S.marcescens 69438): 1 µg/mL (≈ 2.02 µM)
MIC (S.pneumoniae Q19): ≤ 0.06 µg/mL
MIC (S.pyogenes B15): ≤ 0.06 µg/mL
MIC (S.viridans group 016): 0.5 µg/mL (≈ 1.01 µM)
MIC (X.maltophilia 1AC739): > 32 µg/mL
MIC (S.aureus MSSA; MIC range): 1 to 2 µg/mL (≈ 2.02 to 4.04 µM)
MIC50 (S.aureus MSSA): 1 µg/mL (≈ 2.02 µM)
MIC90 (S.aureus MSSA): 1 µg/mL (≈ 2.02 µM)
MIC (S.pneumoniae PEN-R; [3]): 0.1 to 0.5 µg/mL (≈ 0.202 to 1.01 µM)
MIC (S.pneumoniae PEN-R; medium IsoB + 20% serum): 0.12 to 0.5 µg/mL
MIC50 (S.pneumoniae PEN-R; [3]): 0.25 µg/mL (≈ 0.506 µM)
MIC90 (S.pneumoniae PEN-R; [3]): 0.5 µg/mL (≈ 1.01 µM)
MIC50 (S.pneumoniae PEN-R; medium IsoB + 20% serum): 0.5 µg/mL
MIC50 (S.viridans group): 2 µg/mL (≈ 4.04 µM)
MIC90 (S.viridans group): 2 µg/mL (≈ 4.04 µM)
MIC (S.viridans group; MIC range): 0.12 to 8 µg/mL (≈ 0.243 to 16.2 µM)
MIC (E.faecalis [1]; MIC range): 0.5 to 2 µg/mL (≈ 1.01 to 4.04 µM)
MIC50 (E.faecalis [1]): ≤ 0.5 µg/mL
MIC90 (E.faecalis [1]): 2 µg/mL (≈ 4.04 µM)
MIC (S.aureus MRSA; MIC range): 8 to 16 µg/mL (≈ 16.2 to 32.4 µM)
MIC50 (S.aureus MRSA): 16 µg/mL (≈ 32.4 µM)
MIC90 (S.aureus MRSA): 16 µg/mL (≈ 32.4 µM)
MIC (E.faecium; MIC range): 1 to 8 µg/mL (≈ 2.02 to 16.2 µM)
MIC50 (E.faecium): 4 µg/mL (≈ 8.09 µM)
MIC (M.catarrhalis; MIC range): 1 to 32 µg/mL (≈ 2.02 to 64.7 µM)
MIC50 (M.catarrhalis): 4 µg/mL (≈ 8.09 µM)
MIC90 (M.catarrhalis): 16 µg/mL (≈ 32.4 µM)
ED50 (Escherichia coli 25922; Escherichia coli 25922, po (orally) 1 and 3 h after challenge): ~3 mg/kg
ED50 (Escherichia coli 25922; Escherichia coli, E.coli 25922, sc 1 and 3 h after challenge): < 0.1 mg/kg
ED50 (S.aureus Smith): < 1 mg/kg
MIC (E.faecalis [2]; MIC range): 0.25 to 2 µg/mL (≈ 0.506 to 4.04 µM)
MIC50 (E.faecalis [2]): 0.5 µg/mL (≈ 1.01 µM)
MIC90 (E.faecalis [2]): 2 µg/mL (≈ 4.04 µM)
